Data: ChEMBL document CHEMBL3596124, “New anti-trypanosomal active tetracyclic iridoid isolated from Morinda lucida Benth” (Bioorg Med Chem Lett, 2015)
pIC50: −log10 of the molar value.

Assays:
[1] = system: Trypanosoma brucei brucei; experiment: Anti-trypanosomal activity against Trypanosoma brucei brucei GUTat 3.1 bloodstream forms assessed as reduction in parasitemia incubated for 48 hrs by alamar blue assay; assay type: functional, organism-based; conditions: GUTat 3.1, 48 h
[2] = Cytotoxicity against human NB1RGB cells assessed as reduction in cell viability incubated for 48 hrs by MTT assay; assay type: cell-based
[3] = Cytotoxicity against human HF19 cells assessed as reduction in cell viability incubated for 48 hrs by MTT assay; assay type: cell-based; conditions: HF19, 48 h
Caco-2 = experiment: Cytotoxicity against human Caco2 cells assessed as reduction in cell viability incubated for 48 hrs by MTT assay; assay type: functional, cell-based; conditions: Caco-2, 48 h
LoVo = experiment: Cytotoxicity against human LoVo cells assessed as reduction in cell viability incubated for 48 hrs by MTT assay; assay type: functional, cell-based
HCT-15 = experiment: Cytotoxicity against human HCT15 cells assessed as reduction in cell viability incubated for 48 hrs by MTT assay; assay type: functional, cell-based; conditions: HCT-15, 48 h
[4] = Cytotoxicity against human KATO III cells assessed as reduction in cell viability incubated for 48 hrs by MTT assay; assay type: functional, cell-based
Jurkat = experiment: Cytotoxicity against human Jurkat cells assessed as reduction in cell viability incubated for 48 hrs by MTT assay; assay type: functional, cell-based
U-937 = experiment: Cytotoxicity against human U937 cells assessed as reduction in cell viability incubated for 48 hrs by MTT assay; assay type: functional, cell-based; conditions: U-937, 48 h
HL-60 = experiment: Cytotoxicity against human HL60 cells assessed as reduction in cell viability incubated for 48 hrs by MTT assay; assay type: functional, cell-based; conditions: HL-60, 48 h
THP-1 = experiment: Cytotoxicity against human THP1 cells assessed as reduction in cell viability incubated for 48 hrs by MTT assay; assay type: functional, cell-based; conditions: THP-1, 48 h
[5] = Selectivity index, ratio of IC50 for human NB1RGB cells to IC50 for Trypanosoma brucei brucei GUTat 3.1 bloodstream forms; assay type: toxicity, cell-based; conditions: read-out: Ratio IC50
[6] = Selectivity index, ratio of IC50 for human HF19 cells to IC50 for Trypanosoma brucei brucei GUTat 3.1 bloodstream forms; assay type: toxicity, cell-based; conditions: read-out: Ratio IC50
[7] = Selectivity index, ratio of IC50 for human Caco2 cells to IC50 for Trypanosoma brucei brucei GUTat 3.1 bloodstream forms; assay type: functional, Caco-2
[8] = Selectivity index, ratio of IC50 for human LoVo cells to IC50 for Trypanosoma brucei brucei GUTat 3.1 bloodstream forms; assay type: functional
[9] = Selectivity index, ratio of IC50 for human HCT15 cells to IC50 for Trypanosoma brucei brucei GUTat 3.1 bloodstream forms; assay type: functional, HCT-15
[10] = Selectivity index, ratio of IC50 for human KATO III cells to IC50 for Trypanosoma brucei brucei GUTat 3.1 bloodstream forms; assay type: functional, KATO III cell
[11] = Selectivity index, ratio of IC50 for human Jurkat cells to IC50 for Trypanosoma brucei brucei GUTat 3.1 bloodstream forms; assay type: functional
[12] = Selectivity index, ratio of IC50 for human U937 cells to IC50 for Trypanosoma brucei brucei GUTat 3.1 bloodstream forms; assay type: functional, U-937
[13] = Selectivity index, ratio of IC50 for human HL60 cells to IC50 for Trypanosoma brucei brucei GUTat 3.1 bloodstream forms; assay type: functional, HL-60
[14] = Selectivity index, ratio of IC50 for human THP1 cells to IC50 for Trypanosoma brucei brucei GUTat 3.1 bloodstream forms; assay type: functional, THP-1

pIC50 [1]: 5.90
Compound: COC(=O)C1=CO[C@@H]2O[C@H]3/C(=C\c4ccc(O)c(OC)c4)C(=O)O[C@]34C=C[C@H]1[C@H]24
pIC50 [2]: 5.22
pIC50 [3]: 4.92
pIC50 (Caco-2): 5.87
pIC50 (LoVo): 6.96
pIC50 (HCT-15): 4.79
pIC50 [4]: 6.68
pIC50 (Jurkat): 5.61
pIC50 (U-937): 5.39
pIC50 (HL-60): 5.41
pIC50 (THP-1): 5.16
selectivity ratio [5]: 4.73
selectivity ratio [6]: 9.54
Ratio IC50 [7]: 1.06
Ratio IC50 [8]: 0.09
Ratio IC50 [9]: 12.63
Ratio IC50 [10]: 0.17
Ratio IC50 [11]: 1.93
Ratio IC50 [12]: 3.21
Ratio IC50 [13]: 3.05
Ratio IC50 [14]: 5.5
